Source: paper PMC6225232, “Design, Synthesis and Biological Evaluation of Ligustrazine-Flavonoid Derivatives as Potential Anti-Tumor Agents” (Molecules : A Journal of Synthetic Chemistry and Natural …, 2018)

Legend:
Format in all cases: cell-based, human
MCF-7 = assay: MTT cytotoxicity assay, MCF-7
Method: (§1) Five kinds of tumor cell lines and one normal endothelial cell were routinely cultured respectively in RPMI 1640 medium supplemented with 10% (V/V) FBS and 1% (V/V) penicillin-streptomycin, incubated at 37 °C in a 5% CO2 containing incubator. The five tumor cell lines were plated onto 96-well sterile plates in 100 μL/well of medium at a density of 3.5 × 10^3 cells per well and incubated at 37 °C with 5% CO2 for 24 h. Then luteolin, baicalein, apigenin, chrysin, quercetin, fisetin, genistein, daidzein, naringenin, DDP and compounds 10–25 were added at various concentrations (5, 10, 20, 40, 50 μΜ). Each plate contained control group, blank group, drug group and positive group (DDP). After 72 h, 20 μL MTT in phosphate buffered saline (PBS, 5 mg/mL) was added to each well and the plates were incubated at 37 °C for 4 h, then removing the liquid and adding dimethyl sulfoxide (DMSO, 100 μL) to dissolve the MTT formazan. The optical density (OD) for each well was measured on a BIORAD 550 spectrophotometer plate reader (Bio-Gene Technology Ltd., Guangzhou, China) at a wavelength of 490 nm. All tests were carried out three times in parallel.

HepG-2 = assay: MTT cytotoxicity assay, HepG-2
Method: as §1

Bel-7402 = assay: MTT cytotoxicity assay, Bel-7402
Method: as §1

HT-29 = assay: MTT cytotoxicity assay, HT-29
Method: as §1

HeLa = assay: MTT cytotoxicity assay, HeLa; conditions: 72 h
Method: as §1

HUVEC-12 = assay: MTT cytotoxicity assay using HUVEC-12 cell; conditions: for Proliferation Rate (%) 2.5 μM / Proliferation Rate (%) 5 μM / Proliferation Rate (%) 10 μM / Proliferation Rate (%) 20 μM / Proliferation Rate (%) 40 μM: HUVEC-12, 24 h, negative = inhibition; for IC50: MTT, 24 h
Method: Five kinds of tumor cell lines and one normal endothelial cell were routinely cultured respectively in RPMI 1640 medium supplemented with 10% (V/V) FBS and 1% (V/V) penicillin-streptomycin, incubated at 37 °C in a 5% CO2 containing incubator.
The HUVEC-12 cell were seeded in 96-well plates (6.0 × 10^3 cells/ well), and incubated at 37 °C in a 5% CO2 containing incubator. After 24 h, the medium was replaced with fresh medium containing the compounds to be tested. Compounds 14, 19 and DDP were added in final concentrations ranging from 2.5 to 40 μM. Each plate contained control group, blank group and drug group. After 24 h, 20 μL MTT was added to each well and the plates were incubated at 37 °C for 4 h, then removing the liquid and adding dimethyl sulfoxide (DMSO) (100 μL) to dissolve the MTT formazan. The optical density (OD) for each well was measured on a BIORAD 550 spectrophotometer plate reader at a wavelength of 490 nm. All tests were carried out three times in parallel. The proliferation inhibition rates of tumor cells were calculated by {1 − [OD490 (Drug group) − OD490 (Blank group)]/[OD490 (Control group) − OD490 (Blank group)]} × 100%.

Bel-7402 cells [1] = assay: Apoptosis analysis by flow cytometry, Annexin V-FITC/PI staining; conditions: 72 h, control 5.4%
Method: The Bel-7402 cells were plated onto 6-well sterile plates (4.8 × 10^4 cells/well) and placed at 37 °C with 5% CO2 for 24 h. Then compound 14 at various concentrations (0, 5, 10, 20 μΜ) was added. After 72 h, all cells were collected respectively with the right amount of trypsin (without EDTA) digestion. Then the cells were washed with cold PBS twice and centrifuged at 1000 rpm for 5 min. The harvested cells were resuspended in 200 μL binding buffer, which contained 10 μL Annexin V-FITC and PI. After avoided light reaction for 15 min, the cells were analyzed with a flow cytometer.

Bel-7402 cells [2] = assay: Morphological analysis using Giemsa and DAPI staining; conditions: 72 h
Method: The Bel-7402 cells were plated onto 12-well sterile plates at a density of 2.4 × 10^4 cells per well and incubated at 37 °C in a 5% CO2 containing incubator. Then the cells were incubated in the presence of compound 14 at various concentrations (0, 10, 20, 40 μΜ) for 72 h. Then cells were washed with PBS twice, fixed with cold ethanol and 4% paraformaldehyde (pH = 7.4) for 10 min respectively and washed with PBS again. Then fixed cells were stained with 6% Giemsa solution or DAPI at the concentration of 1 mg/mL for 5 min in the dark. Finally, the cells washed with water and dried. The cell morphological changes were observed by fluorescent microscopy and images were captured by digital camera.

Compound | IC50 (MCF-7; Homo sapiens, MCF7, 72 h) [µM] | IC50 (HepG-2; Homo sapiens, HepG2, 72 h) [µM] | IC50 (Bel-7402; Homo sapiens, Bel-7402, 72 h) [µM] | IC50 (HT-29; Homo sapiens, HT-29, 72 h) [µM] | IC50 (HeLa; Homo sapiens) [µM] | further results
O=c1cc(-c2ccc(O)cc2)oc2cc(O)cc(O)c12 [Apigenin] | 29.7 ± 1.43 | 16.1 ± 1.52 | 28.2 ± 0.38 | 23.4 ± 1.89 | 30.6 ± 0.71 | 
O=c1cc(-c2ccccc2)oc2cc(O)c(O)c(O)c12 [Baicalein] | 37.9 ± 1.52 | 20.4 ± 2.07 | 21.6 ± 3.68 | 19.2 ± 2.72 | 22.8 ± 3.54 | 
O=c1cc(-c2ccccc2)oc2cc(O)cc(O)c12 [Chrysin] | 32.1 ± 2.78 | 15.6 ± 0.3 | 35 ± 1.46 | 30.3 ± 1.96 | > 40 | 
Cc1nc(C)c(COc2cc(O)c3c(=O)cc(-c4ccccc4)oc3c2)nc1C [Compound 10, 5-Hydroxy-2-phenyl-7-((3,5,6-trimethylpyrazin-2-yl)methoxy)-4H-chromen-4-one] | > 40 | > 40 | > 40 | > 40 | 26.7 ± 0.34 | 
Cc1nc(C)c(COc2cc3oc(-c4ccccc4)cc(=O)c3c(OCc3nc(C)c(C)nc3C)c2OCc2nc(C)c(C)nc2C)nc1C [Compound 13, 2-Phenyl-5,6,7-tris((3,5,6-trimethylpyrazin-2-yl)methoxy)-4H-chromen-4-one] | > 40 | 13.4 ± 2.5 | 26.13 ± 0.11 | 22.4 ± 0.35 | 17.3 ± 1.07 | 
Cc1nc(C)c(COc2ccc(/C=C/C(=O)c3c(O)cc(OCc4nc(C)c(C)nc4C)cc3OCc3nc(C)c(C)nc3C)cc2)nc1C [Compound 14, (E)-1-(2-Hydroxy-4,6-bis((3,5,6-trimethylpyrazin-2-yl)methoxy)phenyl)-3-(4-((3,5,6-trimethylpyrazin-2-yl)methoxy)phenyl)prop-2-en-1-one] | 29.8 ± 2.18 | 17.3 ± 0.47 | 10.5 ± 1.12 | 31.9 ± 1.96 | 25.1 ± 1.8 | IC50 (Bel-7402; 72 h): 10.7 ± 1.12 µM; Proliferation Rate (%) 2.5 μM (HUVEC-12): 1.62 ± 0.75%; Proliferation Rate (%) 5 μM (HUVEC-12): 1.99 ± 0.23%; Proliferation Rate (%) 10 μM (HUVEC-12): 14.84 ± 1.41%; Proliferation Rate (%) 20 μM (HUVEC-12): 16.71 ± 0.29%; Proliferation Rate (%) 40 μM (HUVEC-12): −2.32 ± 1.37%; IC50 (HUVEC-12; Homo sapiens): > 40 µM; apoptosis ratio (early and late) (Bel-7402 cells [1]; Bel-7402, 10 μM): 45.5%; apoptosis ratio (early and late) (Bel-7402 cells [1]; Bel-7402, 20 μM): 54.6%; cell morphology, Giemsa staining (Bel-7402 cells [2]; Bel-7402, 40 μM): mainly cell fragments rather than complete cells; cell morphology, DAPI staining (Bel-7402 cells [2]; Bel-7402, 10, 20, 40 μM): morphological features of apoptosis
Cc1nc(C)c(COc2ccc(/C=C/C(=O)c3c(OCc4nc(C)c(C)nc4C)cc(OCc4nc(C)c(C)nc4C)cc3OCc3nc(C)c(C)nc3C)cc2)nc1C [Compound 16, (E)-3-(4-((3,5,6-Trimethylpyrazin-2-yl)methoxy)phenyl)-1-(2,4,6-tris((3,5,6-trimethylpyrazin-2-yl)-methoxy)phenyl)prop-2-en-1-one] | 16.5 ± 0.45 | 20.6 ± 1.39 | > 40 | 34.4 ± 2.32 | 30.5 ± 2.62 | 
Cc1nc(C)c(COc2ccc(-c3coc4cc(OCc5nc(C)c(C)nc5C)cc(O)c4c3=O)cc2)nc1C [Compound 17, 5-Hydroxy-7-((3,5,6-trimethylpyrazin-2-yl)methoxy)-3-(4-((3,5,6-trimethylpyrazin-2-yl)methoxy)-phenyl)-4H-chromen-4-one] | > 40 | > 40 | > 40 | 10.7 ± 1.35 | > 40 | 
Cc1nc(C)c(COc2ccc(-c3coc4cc(O)ccc4c3=O)cc2)nc1C [Compound 19, 7-Hydroxy-3-(4-((3,5,6-trimethylpyrazin-2-yl)methoxy)phenyl)-4H-chromen-4-one] | 10.4 ± 1.23 | 14.5 ± 0.48 | 28.9 ± 0.49 | 11.7 ± 1.29 | 14.3 ± 1.17 | Proliferation Rate (%) 2.5 μM (HUVEC-12): −8.75 ± 0.38%; Proliferation Rate (%) 5 μM (HUVEC-12): −19.35 ± 0.35%; Proliferation Rate (%) 10 μM (HUVEC-12): −19.49 ± 2.17%; Proliferation Rate (%) 20 μM (HUVEC-12): −24.22 ± 3.19%; Proliferation Rate (%) 40 μM (HUVEC-12): −25.07 ± 1.02%; IC50 (HUVEC-12; Homo sapiens): > 40 µM
Cc1nc(C)c(COc2ccc(-c3coc4cc(OCc5nc(C)c(C)nc5C)ccc4c3=O)cc2)nc1C [Compound 20, 7-((3,5,6-Trimethylpyrazin-2-yl)methoxy)-3-(4-((3,5,6-trimethylpyrazin-2-yl)methoxy)phenyl)-4H-chromen-4-one] | > 40 | > 40 | 25.2 ± 1.72 | 10.9 ± 2.3 | 16.5 ± 1.79 | 
N.N.[Cl][Pt][Cl] [DDP, reference compound] |  |  |  |  |  | IC50 (MCF-7; 72 h): 6.75 ± 0.57 µM; IC50 (HepG-2; 72 h): 4.14 ± 0.16 µM; IC50 (Bel-7402; 72 h): 6.73 ± 0.37 µM; Proliferation Rate (%) 2.5 μM (HUVEC-12): −23.93 ± 0.75%; Proliferation Rate (%) 5 μM (HUVEC-12): −31.38 ± 1.46%; Proliferation Rate (%) 10 μM (HUVEC-12): −58.24 ± 0.82%; Proliferation Rate (%) 20 μM (HUVEC-12): −66.58 ± 1.75%; Proliferation Rate (%) 40 μM (HUVEC-12): −82.69 ± 2.19%; IC50 (HUVEC-12): 9.11 ± 0.54 µM; IC50 (HT-29; 72 h): 5.83 ± 0.59 µM; IC50 (HeLa): 4.76 ± 0.41 µM
O=c1c(-c2ccc(O)cc2)coc2cc(O)ccc12 [Daidzein] | 36.8 ± 1.48 | 21.8 ± 1.53 | > 40 | > 40 | > 40 | 
O=c1c(O)c(-c2ccc(O)c(O)c2)oc2cc(O)ccc12 [Fisetin] | 38.1 ± 1.83 | 17.4 ± 1.04 | 25.5 ± 1.54 | 23.9 ± 0.81 | 20.9 ± 1.65 | 
O=c1c(-c2ccc(O)cc2)coc2cc(O)cc(O)c12 [Genistein] | 35.6 ± 1.38 | 19.8 ± 1.31 | 34.7 ± 0.63 | 31.13 ± 0.26 | 34.6 ± 2.52 | 
O=c1cc(-c2ccc(O)c(O)c2)oc2cc(O)cc(O)c12 [Luteolin] | 17 ± 0.31 | 11.8 ± 0.44 | 14.5 ± 0.68 | 19.2 ± 1.17 | 21.3 ± 1.12 | 
O=c1c(O)c(-c2ccc(O)c(O)c2)oc2cc(O)cc(O)c12 [Quercetin] | > 40 | 13.6 ± 0.73 | 30.4 ± 2.51 | 27 ± 0.47 | 20.8 ± 4.04 | 
